Experimental data reported in US20240392231A1, “BACTERIOLYSIS METHOD AND BACTERIA DETECTION METHOD” (ASAHI KASEI KABUSHIKI KAISHA, priority 2021, published 2024).

Columns and labels:
[1] = system: Staphylococcus aureus (SA); assay: Bacteriolysis and immunochromatographic detection, test line intensity by image processing; format: cell-based
Method: (§1) Escherichia coli (EC) was selected as the Gram-negative bacteria and Staphylococcus aureus (SA) as the Gram-positive bacteria, and each was dissolved in saline to prepare a solution with a concentration of 1e5 cfu/ml. Normal saline was also used as the bacteria-free solution.
(§2) 0.1M Tris-HCl (pH 7.4) buffer was mixed with 2.0 μg/ml of lysostaphin enzyme (the final concentration after mixing with the bacterial solution for evaluation (sample) was 1.0 μg/ml) and 0.2 mass % Tween20 for immunochromatographic development and used as a mother solution to prepare various reaction solutions with DDAO concentrations of from 0 to 0.5 mass % (the final concentrations after mixing with the bacterial solution for evaluation (sample) were 0 to 0.25 mass %) or benzalkonium chloride concentrations of 0 to 0.5 mass % (the final concentrations after mixing with the bacterial solution for evaluation (sample) were 0 to 0.25 mass %).
(§3) Bacterial lysis and detection performance by antigen-antibody reaction were evaluated by inserting the immunochromatographic test strip prepared in Example 1 into a 1:1 mixture of the bacterial solution for evaluation and the various reaction solutions described above. The evaluation was made by photographing the test line area with a camera and quantifying the degree of redness of the test line area due to gold colloids via image processing (from the RGB values, the G value was used as indicating the red absorption. This is indicated as “test line intensity” in the graphs below). A higher test line intensity indicates a higher degree of redness, and a test line intensity of 10 or higher is considered visually positive.
To see the effect of lysostaphin, Staphylococcus aureus (SA) was dissolved in saline to prepare a solution with a concentration of 1e6 cfu/ml. Normal saline was also used as the bacteria-free solution.
0.1M Tris-HCl (pH 7.4) buffer was mixed with DDAO at a concentration 0.15 mass % (the final concentration after mixing with the bacterial solution for evaluation (sample) was 0.075 mass %) or benzalkonium chloride at a concentration of 0.05 mass % (the final concentration after mixing with the bacterial solution for evaluation (sample) was 0.025 mass %) as well as 0.2 mass % of Tween20 for immunochromatographic development and used as a mother solution to prepare various reaction solutions with lysostaphin enzyme concentrations of 0 to 50 μg/ml (the final concentration after mixing with the bacterial solution for evaluation (sample) were 0 to 25 μg/ml).
Bacterial lysis and detection performance by antigen-antibody reaction (test line intensity) were evaluated by inserting the immunochromatographic test strip prepared in Example 1 into a 1:1 mixture of the bacterial solution for evaluation and the various reaction solutions described above.

[2] = system: Escherichia coli (EC); assay: as above; format: cell-based
Method: as §1, §2, §3

lysostaphin: bacteriolysis enzyme, protein hydrolysis enzyme
test line intensity SA ([1]; lysostaphin final concentration exceeding 0.01 μg/ml, DDAO 0.075 mass %, 1e6 cfu/ml, FIG. 4): high test line intensity | test line intensity SA ([1]; lysostaphin final concentration exceeding 0.01 μg/ml, benzalkonium chloride 0.025 mass %, 1e6 cfu/ml, FIG. 5): high test line intensity

benzalkonium chloride
test line intensity SA ([1]; final benzalkonium chloride 0 to 0.065 mass %, lysostaphin 1.0 μg/ml, 1e5 cfu/ml, FIG. 3): increased | test line intensity SA ([1]; final benzalkonium chloride exceeding 0.07 mass %, FIG. 3): decreased | test line intensity EC ([2]; final benzalkonium chloride exceeding 0.075 mass %, FIG. 3): decrease in test line intensity | bacteriolysis efficiency and test line intensity EC ([2]; final benzalkonium chloride up to 0.075 mass % vs none, lysostaphin 1.0 μg/ml, 1e5 cfu/ml, FIG. 3): higher bacteriolysis efficiency and test line intensity

CCCCCCCCCCCC[N+](C)(C)[O-] [DDAO, N,N-dimethyldodecylamine N-oxide]
test line intensity SA ([1]; final DDAO 0 to 0.05 mass %, lysostaphin 1.0 μg/ml, 1e5 cfu/ml, FIG. 2): increased | test line intensity SA ([1]; final DDAO above 0.1 mass %, lysostaphin 1.0 μg/ml, 1e5 cfu/ml, FIG. 2): decreased | test line intensity SA ([1]; final DDAO between 0.05 and 0.1 mass %, lysostaphin 1.0 μg/ml, 1e5 cfu/ml, FIG. 2): remained almost constant | test line intensity EC ([2]; higher final concentrations of DDAO vs absence of DDAO, lysostaphin 1.0 μg/ml, 1e5 cfu/ml, FIG. 2): higher test line intensities
